Experimental data: PubChem BioAssay (NCI)
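Compound exposure: 48 hours, 5 concentrations, 96-well plates. At the TGI there is no net growth.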

Tests used:
Experiment in all cases: NCI tumour cell line growth inhibition, 48 h
[1] = system: SK-MEL-28 melanoma
[2] = system: HOP-18 NSCLC
[3] = system: UACC-257 melanoma
[4] = system: OVCAR-8 ovarian
[5] = system: A498 renal
[6] = system: SNB-75 CNS
[7] = system: NCI-H460 lung
[8] = system: SN12C renal
[9] = system: RPMI-8226 leukemia
[10] = system: OVCAR-4 ovarian
[11] = system: SN12K1 renal
[12] = system: HCT-116 colon
[13] = system: SF-268 CNS
[14] = system: CAKI-1 renal
[15] = system: HOP-62 NSCLC
[16] = system: IGROV1 ovarian
[17] = system: HL-60(TB) leukemia
[18] = system: SF-295 CNS
[19] = system: MCF7 breast
[20] = system: P388 leukemia
[21] = system: NCI/ADR-RES ovarian
[22] = system: DMS 273 small cell lung
[23] = system: RXF 393 renal
[24] = system: SNB-19 CNS
[25] = system: CCRF-CEM leukemia
[26] = system: HOP-92 NSCLC
[27] = system: HCC-2998 colon
[28] = system: U251 CNS
[29] = system: SW-620 colon
[30] = system: HCT-15 colon
[31] = system: SF-539 CNS
[32] = system: NCI-H23 lung
[33] = system: UO-31 renal
[34] = system: SK-OV-3 ovarian
[35] = system: NCI-H226 lung
[36] = system: DMS 114 small cell lung
[37] = system: P388/ADR leukemia
[38] = system: DLD-1 colon
[39] = system: K-562 leukemia
[40] = system: MOLT-4 leukemia
[41] = system: A549 NSCLC
[42] = system: M19-MEL melanoma
[43] = system: KM12 colon
[44] = system: LOX IMVI melanoma
[45] = system: XF 498 CNS
[46] = system: SK-MEL-2 melanoma
[47] = system: HT29 colon
[48] = system: SNB-78 CNS
[49] = system: KM20L2 colon
[50] = system: NCI-H522 lung
[51] = system: UACC-62 melanoma
[52] = system: EKVX NSCLC
[53] = system: OVCAR-3 ovarian
[54] = system: OVCAR-5 ovarian
[55] = system: COLO 205 colon
[56] = system: MALME-3M melanoma
[57] = system: SK-MEL-5 melanoma
[58] = system: DU-145 prostate
[59] = system: LXFL 529 NSCLC
[60] = system: PC-3 prostate
[61] = system: SR leukemia
[62] = system: HS 578T breast
[63] = system: MDA-N
[64] = system: M14 melanoma
[65] = system: TK-10 renal
[66] = system: 786-0 renal
[67] = system: RXF-631 renal
[68] = system: T-47D breast
[69] = system: BT-549 breast
[70] = system: ACHN renal
[71] = system: MDA-MB-435
[72] = system: MDA-MB-231 breast

With `CC(C)c1oc(=O)cc2c1C(O)C1OC(=O)C3(C)C(O)C4OC4C2(C)C13` (stereo not drawn) the TGI [1] was 12.7 µM, the TGI [2] was 24.3 µM and the TGI [3] was 10.8 µM. The TGI [4] was 10.6 µM, the TGI [5] was 1.41 µM and the TGI [6] was 7.92 µM. It also gave a TGI [7] of 9.73 µM, a TGI [8] of 7.05 µM and a TGI [9] of 4.1 µM. It also gave a TGI [10] of 12.4 µM, a TGI [11] of 9.37 µM and a TGI [12] of 9.99 µM. It also gave a TGI [13] of 25 µM, a TGI [14] of 9.39 µM and a TGI [15] of 9.27 µM. The TGI [16] was 20.6 µM, the TGI [17] was 1.22 µM and the TGI [18] was 12.8 µM. For the same molecule, the TGI [19] was 5.23 µM, the TGI [20] was 1230 nM and the TGI [21] was 96.9 µM. The TGI [22] was 5.93 µM, the TGI [23] was 6.8 µM and the TGI [24] was 4.41 µM. It also gave a TGI [25] of 3.07 µM, a TGI [26] of 2.38 µM and a TGI [27] of 7.92 µM. For the same molecule, the TGI [28] was 25 µM, the TGI [29] was 19 µM and the TGI [30] was 41.6 µM. For the same molecule, the TGI [31] was 4.19 µM, the TGI [32] was 7.63 µM and the TGI [33] was 15.5 µM. It also gave a TGI [34] of 20.3 µM, a TGI [35] of 19.3 µM and a TGI [36] of 6.31 µM. It also gave a TGI [37] of 16.6 µM, a TGI [38] of 8.57 µM and a TGI [39] of 6.63 µM. For the same molecule, the TGI [40] was 2.13 µM, the TGI [41] was 16.5 µM and the TGI [42] was 7.75 µM. For the same molecule, the TGI [43] was 24.9 µM, the TGI [44] was 5.77 µM and the TGI [45] was 1.95 µM. The TGI [46] was 7.71 µM, the TGI [47] was 11.1 µM and the TGI [48] was 52 µM. The TGI [49] was 12.8 µM, the TGI [50] was 5.21 µM and the TGI [51] was 7.44 µM. For the same molecule, the TGI [52] was 9.84 µM, the TGI [53] was 6.42 µM and the TGI [54] was 27.2 µM. It also gave a TGI [55] of 4.18 µM, a TGI [56] of 10 µM and a TGI [57] of 1.77 µM.

In the case of `CN(C)[C@@H]1C(=O)C(C(=O)NCNc2nc3n[nH]nc3c(=O)[nH]2)=C(O)[C@@]2(O)C(=O)C3=C(O)c4c(O)cccc4[C@@](C)(O)[C@H]3C[C@@H]12`, the TGI [1] is reported as 22.1 µM, the TGI [2] is reported as > 100 µM and the TGI [3] is reported as > 87.8 µM. The TGI [4] was > 100 µM, the TGI [5] was > 100 µM and the TGI [6] was > 95.8 µM. For the same molecule, the TGI [7] was > 97.1 µM, the TGI [8] was > 91.2 µM and the TGI [9] was 6.7 µM. The TGI [58] was 22.5 µM, the TGI [59] was > 100 µM and the TGI [10] was > 58.3 µM. For the same molecule, the TGI [12] was 24.7 µM, the TGI [13] was > 92.2 µM and the TGI [60] was > 100 µM. For the same molecule, the TGI [14] was > 100 µM, the TGI [15] was 27.2 µM and the TGI [16] was > 100 µM. For the same molecule, the TGI [17] was 11.6 µM, the TGI [18] was > 100 µM and the TGI [19] was > 100 µM. For the same molecule, the TGI [21] was > 100 µM, the TGI [22] was > 100 µM and the TGI [23] was 5.37 µM. The TGI [24] was > 100 µM, the TGI [25] was > 17.7 µM and the TGI [26] was > 30 µM. The TGI [61] was > 19.5 µM, the TGI [62] was 53.5 µM and the TGI [27] was > 100 µM. For the same molecule, the TGI [63] was 14.5 µM, the TGI [28] was > 61.3 µM and the TGI [29] was > 56.2 µM. For the same molecule, the TGI [64] was 15.8 µM, the TGI [65] was > 80.5 µM and the TGI [30] was > 100 µM. For the same molecule, the TGI [66] was > 100 µM, the TGI [31] was 8.88 µM and the TGI [67] was > 47.5 µM. For the same molecule, the TGI [32] was > 100 µM, the TGI [33] was 18.5 µM and the TGI [34] was 8.25 µM. For the same molecule, the TGI [68] was > 100 µM, the TGI [35] was 56.9 µM and the TGI [36] was 13.8 µM. The TGI [69] was > 100 µM, the TGI [38] was > 77.8 µM and the TGI [39] was > 16.9 µM. The TGI [40] was > 17.2 µM, the TGI [41] was > 100 µM and the TGI [42] was 15 µM. For the same molecule, the TGI [43] was > 100 µM, the TGI [44] was 17.3 µM and the TGI [70] was > 100 µM. For the same molecule, the TGI [45] was > 26.9 µM, the TGI [46] was 3.09 µM and the TGI [47] was > 100 µM. The TGI [48] was > 100 µM, the TGI [49] was > 68.9 µM and the TGI [50] was > 80.3 µM. For the same molecule, the TGI [51] was 7.59 µM, the TGI [52] was > 69.5 µM and the TGI [53] was > 74.2 µM. It also gave a TGI [71] of 7.35 µM, a TGI [54] of 98.6 µM and a TGI [55] of 57.4 µM. The TGI [56] was 13.1 µM, the TGI [57] was 10.9 µM and the TGI [72] was > 100 µM.

`O=C(NN1C(=O)CS(=O)(=O)C1c1ccc(Cl)c(Cl)c1)c1ccncc1` (stereo not drawn) was tested, and the TGI [1] was > 100 µM, the TGI [2] was > 100 µM and the TGI [3] was > 100 µM. For the same molecule, the TGI [4] was > 100 µM, the TGI [5] was > 100 µM and the TGI [6] was > 100 µM. The TGI [7] was > 100 µM, the TGI [8] was > 100 µM and the TGI [9] was > 71.5 µM. The TGI [10] was > 100 µM, the TGI [11] was > 100 µM and the TGI [12] was > 100 µM. The TGI [13] was > 100 µM, the TGI [14] was > 100 µM and the TGI [15] was > 100 µM. The TGI [16] was > 100 µM, the TGI [17] was > 90.4 µM and the TGI [18] was > 100 µM. For the same molecule, the TGI [19] was > 100 µM, the TGI [20] was > 60100 nM and the TGI [21] was > 100 µM. The TGI [22] was > 31.6 µM, the TGI [23] was > 100 µM and the TGI [24] was > 100 µM. For the same molecule, the TGI [25] was > 86.1 µM, the TGI [26] was > 100 µM and the TGI [27] was > 100 µM. For the same molecule, the TGI [28] was > 100 µM, the TGI [29] was > 100 µM and the TGI [30] was > 100 µM. The TGI [31] was > 100 µM, the TGI [32] was > 100 µM and the TGI [33] was > 100 µM. For the same molecule, the TGI [34] was > 100 µM, the TGI [35] was > 100 µM and the TGI [36] was > 100 µM. For the same molecule, the TGI [37] was > 74.8 µM, the TGI [38] was > 100 µM and the TGI [39] was > 100 µM. The TGI [40] was > 71.8 µM, the TGI [41] was > 100 µM and the TGI [42] was > 100 µM. The TGI [43] was > 100 µM, the TGI [44] was > 100 µM and the TGI [45] was > 100 µM. For the same molecule, the TGI [46] was > 100 µM, the TGI [47] was > 100 µM and the TGI [48] was > 100 µM. The TGI [49] was > 100 µM, the TGI [50] was > 100 µM and the TGI [51] was > 100 µM. For the same molecule, the TGI [52] was > 100 µM, the TGI [53] was > 100 µM and the TGI [54] was > 100 µM. For the same molecule, the TGI [55] was > 100 µM, the TGI [56] was > 100 µM and the TGI [57] was > 100 µM.
